Laboratory results reported in US11753409B2, “Crystalline salts of a B-RAF kinase inhibitor” (Xynomic Pharmaceuticals, Inc., priority 2017, dated 2023).
Like-named read-outs stand apart in the source and are kept apart here.

How the values were obtained:
[1] = Equilibrium solubility in various aqueous media (solubility after 2 h); format: physicochemical; settings: thermodynamic from solid
Description: Saturated solutions are prepared in well plates by adding an appropriate volume of selected aqueous media (typically in the range of 0.25-1.5 mL) into each well which contains a known quantity of solid drug substance (typically in the range 0.5-5.0 mg). The wells are shaken or stirred for a predefined time period (typically in a range of 2-24 h) and then filtered using appropriate filter membranes (typically PTFE-filters with 0.45 μm pore size). Filter absorption is avoided by discarding the first few drops of filtrate. The amount of dissolved drug substance is determined by UV spectroscopy. In addition, the pH of the aqueous saturated solution is measured using a glass-electrode pH meter.
The equilibrium solubility of N-(3-(5-((1-Ethylpiperidin-4-yl)(methyl)amino)-3-(pyrimidin-5-yl)-1H-pyrrolo[3,2-b]pyridin-1-yl)-2,4-difluorophenyl)propane-1-sulfonamide monohydrochloride salt in various media was determined.
The solubility of N-(3-(5-((1-Ethylpiperidin-4-yl)(methyl)amino)-3-(pyrimidin-5-yl)-1H-pyrrolo[3,2-b]pyridin-1-yl)-2,4-difluorophenyl)propane-1-sulfonamide monosuccinate salt in various media was determined.

[2] = Milling and compression stress followed by XRPD; format: physicochemical
Description: FIG. 20 is a plot of the XRPD of N-(3-(5-((1-ethylpiperidin-4-yl)(methyl)amino)-3-(pyrimidin-5-yl)-1H-pyrrolo[3,2-b]pyridin-1-yl)-2,4-difluorophenyl)propane-1-sulfonamide monohydrochloride salt following milling in a swing mill for 10 min. at 30 rps.
FIG. 21 is a plot of the XRPD of N-(3-(5-((1-ethylpiperidin-4-yl)(methyl)amino)-3-(pyrimidin-5-yl)-1H-pyrrolo[3,2-b]pyridin-1-yl)-2,4-difluorophenyl)propane-1-sulfonamide monohydrochloride salt following compression at 2000 N for 1 s to a tablet (diameter-5 mm).
FIG. 31 is a plot of the XRPD of N-(3-(5-((1-ethylpiperidin-4-yl)(methyl)amino)-3-(pyrimidin-5-yl)-1H-pyrrolo[3,2-b]pyridin-1-yl)-2,4-difluorophenyl)propane-1-sulfonamide monosuccinate salt following milling in a swing mill for 10 min. at 30 rps.
FIG. 32 is a plot of the XRPD of N-(3-(5-((1-ethylpiperidin-4-yl)(methyl)amino)-3-(pyrimidin-5-yl)-1H-pyrrolo[3,2-b]pyridin-1-yl)-2,4-difluorophenyl)propane-1-sulfonamide monosuccinate salt following compression at 2000 N for 1 s to a tablet (diameter-5 mm).

[3] = Intrinsic dissolution rate, rotating disc method; format: physicochemical
Description: The intrinsic dissolution rate of 3-(5-((1-ethylpiperidin-4-yl)(methyl)amino)-3-(pyrimidin-5-yl)-1H-pyrrolo[3,2-b]pyridin-1-yl)-2,4-difluorophenyl)propane-1-sulfonamide salts was determined in aqueous media covering a range of pH 1.1-7.4 using the rotating disc method which maintains a constant surface area.
The drug substance (5 mg) was compressed at 356.1 Newtons for 60 s to form a disk. These disks were mounted to sample holders which fit into a miniaturized dissolution testing apparatus. The dissolution media were stirred at 200 rpm at a temperature of 37° C. Samples were automatically withdrawn every second minute from the dissolution vessel and assayed by UV spectrophotometry.
The intrinsic dissolution rate of N-(3-(5-((1-ethylpiperidin-4-yl)(methyl)amino)-3-(pyrimidin-5-yl)-TH-pyrrolo[3,2-b]pyridin-1-yl)-2,4-difluorophenyl)propane-1-sulfonamide monohydrochloride salt in various media was measured in media at various pH values.
The intrinsic dissolution rate of N-(3-(5-((1-ethylpiperidin-4-yl)(methyl)amino)-3-(pyrimidin-5-yl)-1H-pyrrolo[3,2-b]pyridin-1-yl)-2,4-difluorophenyl)propane-1-sulfonamide monosuccinate salt in various media was measured in media at various pH values.

[4] = Intrinsic dissolution rate, rotating disc method; format: physicochemical; settings: pH of medium 1.0 (0.1M HCl), 37° C.
[5] = Pharmacokinetics following oral administration to rats; format: in vivo, HsdHan:WIST Norway rats; settings: rat; for AUD: AUD range 0-6 h; for concentration at 24 h: mean n = 3, read-out: Blood Plasma Concentrations
Description: The pharmacokinetics of N-(3-(5-((1-ethylpiperidin-4-yl)(methyl)amino)-3-(pyrimidin-5-yl)-1H-pyrrolo[3,2-b]pyridin-1-yl)-2,4-difluorophenyl)propane-1-sulfonamide hydrochloride salt and N-(3-(5-((1-ethylpiperidin-4-yl)(methyl)amino)-3-(pyrimidin-5-yl)-1H-pyrrolo[3,2-b]pyridin-1-yl)-2,4-difluorophenyl)propane-1-sulfonamide […] following oral administration at 40 mg and 80 mg (dose calculated as the free base) to HsdHan:WIST Norway rats. Each salt was administered to 3 animals.

[6] = Sorption-desorption (DVS) of the salts with XRPD before and after; format: physicochemical
Description: Dynamic Vapor Sorption (DVS) was performed in a IGAsorp Water Sorption Analyzer from Hiden Isochema. Adsorption and desorption isotherms were performed at 25° C. with 10% RH step intervals ranging from 0% relative humidity up to 90% relative humidity.

[7] = HsdHan:WIST, plasma, 40 mg/kg oral

## CCCS(=O)(=O)Nc1ccc(F)c(-n2cc(-c3cncnc3)c3nc(N(C)C4CCN(CC)CC4)ccc32)c1F.Cl [Monohydrochloride Salt, N-(3-(5-((1-Ethylpiperidin-4-yl)(methyl)amino)-3-(pyrimidin-5-yl)-1H-pyrrolo[3,2-b]pyridin-1-yl)-2,4-difluorophenyl)propane-1-sulfonamide monohydrochloride salt]
[1]; 0.01 M HCl, simulated gastric fluid, HCl (0.01M)
  solubility at 2 h: 20 µg/mL
[1]; 0.1 M HCl, simulated gastric fluid, HCl (0.1M)
  solubility at 2 h: 60 µg/mL
[1]; aqueous buffer, 0.1M Citric acid
  solubility at 2 h: 400 µg/mL
[1]; aqueous buffer, 0.1M NaOH
  solubility at 2 h: > 10000 µg/mL
[1]; aqueous buffer, Acetate Buffer (pH 5.0)
  solubility at 2 h: 200 µg/mL
[1]; aqueous buffer, McIlvaine Buffer (pH 2.2)
  solubility at 2 h: 400 µg/mL
[1]; aqueous buffer, McIlvaine Buffer (pH 3.0)
  solubility at 2 h: 200 µg/mL
[1]; aqueous buffer, McIlvaine Buffer (pH 4.0)
  solubility at 2 h: 100 µg/mL
[1]; aqueous buffer, McIlvaine Buffer (pH 4.5)
  solubility at 2 h: 200 µg/mL
[1]; aqueous buffer, McIlvaine Buffer (pH 5.0)
  solubility at 2 h: 200 µg/mL
[1]; aqueous buffer, McIlvaine Buffer (pH 6.0)
  solubility at 2 h: 100 µg/mL
[1]; aqueous buffer, McIlvaine Buffer (pH 6.8)
  solubility at 2 h: 100 µg/mL
[1]; aqueous buffer, McIlvaine Buffer (pH 7.4)
  solubility at 2 h: 10 µg/mL
[1]; aqueous buffer, Phosphate Buffer (pH 6.8)
  solubility at 2 h: 200 µg/mL
[1]; aqueous buffer, Sorensen Buffer (pH 9.0)
  solubility at 2 h: 10 µg/mL
[1]; aqueous buffer, Sorensen Buffer (pH 11)
  solubility at 2 h: 700 µg/mL
[1]; Simulated intestinal fluid (FaSSIF)
  solubility at 2 h: 2 µg/mL
[1]; Simulated intestinal fluid (FeSSIF)
  solubility at 2 h: 30 µg/mL
[1]; water
  solubility at 2 h: 100 µg/mL
[2]; 2000 N for 1 s to a tablet (diameter 5 mm)
  Crystallinity and polymorphic form after compression (XRPD): slight decrease in crystallinity but no change in polymorphic form
[2]; swing mill for 10 min. at 30 rps
  Crystallinity and polymorphic form after milling (XRPD): significant decrease in crystallinity but no change in polymorphic form
[3]; pH of medium 2.2, 37° C.
  Intrinsic Dissolution Rate: 121 μg/cm^2/min.
[3]; pH of medium 3.0, 37° C.
  Intrinsic Dissolution Rate: 80 μg/cm^2/min.
[3]; pH of medium 4.5, 37° C.
  Intrinsic Dissolution Rate: 38 μg/cm^2/min.
[3]; pH of medium 6.8, 37° C.
  Intrinsic Dissolution Rate: 15 μg/cm^2/min.
[3]; pH of medium 7.4, 37° C.
  Intrinsic Dissolution Rate: 3 μg/cm^2/min.
[4]
  Intrinsic Dissolution Rate: 4 μg/cm^2/min.
[5]; 40 mg/kg oral
  AUD: 0.312 µM·h
[5]; 80 mg/kg oral
  AUD: 1.04 µM·h
[5]; HsdHan:WIST, in vivo, 80 mg/kg oral
  Cmax: 419 nM
[5]; HsdHan:WIST, plasma, po, 40 mg/kg dose
  bioavailability: 1%
[5]; [7]
  Cmax: 123 nM
  Tmax: 3.3 h
[5]; HsdHan:WIST, plasma, 80 mg/kg oral
  Tmax: 4 h
[5]; Time 0.5, 40 mg/kg oral
  concentration at 24 h: 3.53 nM
[5]; Time 1.0, 40 mg/kg oral
  concentration at 24 h: 6.56 nM
[5]; Time 1.0, 80 mg/kg oral
  concentration at 24 h: 3.69 nM
[5]; Time 2.0, 40 mg/kg oral
  concentration at 24 h: 107 nM
[5]; Time 2.0, 80 mg/kg oral
  concentration at 24 h: 69.9 nM
[5]; Time 4.0, 40 mg/kg oral
  concentration at 24 h: 60.9 nM
[5]; Time 4.0, 80 mg/kg oral
  concentration at 24 h: 419 nM
[5]; Time 6.0, 40 mg/kg oral
  concentration at 24 h: 13.3 nM
[5]; Time 6.0, 80 mg/kg oral
  concentration at 24 h: 69 nM
[6]; XRPD before and after
  Change in structure (XRPD) after sorption-desorption experiment: no significant change in structure occurred
[6]; range from 0-80% relative humidity
  Reversible weight gain (isotherm sorption-desorption): approximately 2.5%
[6]; range from 0-90% relative humidity
  Reversible weight gain (isotherm sorption-desorption): approximately 400%
[6]; range from 10-90% relative humidity, scale-up sample
  Weight gain (sorption-desorption): approximately 2.4%
